Results taken from ChEMBL document CHEMBL6096724, “Sulfonium Moieties as Ammonium Bioisosteres: Novel Ligands for the Alpha7 Nicotinic Acetylcholine Receptor” (J Med Chem, 2025).
Values belong to the compound of their own block, whether it stands above or below them. Activity calls are given as the source filed them. The calls are words filed in the database; no cut-off is given here.

Key:
[1] = target: T1, Neuronal acetylcholine receptor subunit alpha-9 (Homo sapiens, UniProt Q9UGM1); test: Agonist activity at human alpha9 nAChR expressed in xenopus laevis oocytes assessed as activation of acetylcholine-induced response by two electrode voltage-clamp assay (reference value: 1); type: cell-based; details: Oocyte, filed as agonist
[2] = target: T2, Neuronal acetylcholine receptor subunit alpha-7 (Homo sapiens, UniProt P36544); test: Antagonist activity at human alpha7 nAChR expressed in xenopus laevis oocytes assessed as inhibition of acetylcholine-induced response by two electrode voltage-clamp assay; type: cell-based, Oocyte
[3] = target: T1, Neuronal acetylcholine receptor subunit alpha-9; test: Agonist activity at human alpha9 nAChR expressed in xenopus laevis oocytes assessed as activation of acetylcholine-induced response by two electrode voltage-clamp assay; type: cell-based, Oocyte
Mus musculus [4] = test: Anti-inflammatory activity in C57BL/6J mouse model of CFA-induced chronic inflammatory pain assessed as reduction in paw edema at 1 to 3 mg/kg, ip measured for 0.5 to 6 hrs; type: functional, organism-based; details: dose 1-3 mg/kg, time 0.5-6 hrs
Mus musculus [5] = test: Effect on locomotor activity in C57BL/6J mouse model of CFA-induced chronic inflammatory pain at 3 mg/kg, ip measured for 0.5 to 6 hrs; type: functional, organism-based; details: time 0.5-6 hrs
Mus musculus [6] = test: Anti-allodynic effect in C57BL/6J mouse model of CFA-induced chronic inflammatory pain assessed as reduction in mechanical hypersensitivity at 3 mg/kg, ip measured after 1 hr; type: functional, organism-based
[7] = target: T2, Neuronal acetylcholine receptor subunit alpha-7; test: Antagonist activity at human alpha7 nAChR expressed in acetylcholine-treated xenopus laevis oocytes at 30 uM by two electrode voltage-clamp assay; type: cell-based; details: Oocyte, filed as antagonist
Mus musculus [8] = test: Effect on von Frey responses in C57BL/6J mouse model of CFA-induced chronic inflammatory pain at 1 to 3 mg/kg, ip measured for 0.5 to 6 hrs; type: functional, organism-based; details: dose 1-3 mg/kg, time 0.5-6 hrs
Mus musculus [9] = test: Anti-allodynic effect in C57BL/6J mouse model of CFA-induced chronic inflammatory pain assessed as reduction in mechanical hypersensitivity at 3 mg/kg, ip measured after 6 hrs; type: functional, organism-based
[10] = target: T2, Neuronal acetylcholine receptor subunit alpha-7; test: Agonist activity at human alpha7 nAChR expressed in xenopus laevis oocytes assessed as activation of acetylcholine-induced response by two electrode voltage-clamp assay; type: cell-based, Oocyte
[11] = target: T2, Neuronal acetylcholine receptor subunit alpha-7; test: Desensitization of human alpha7 nAChR expressed in acetylcholine-treated xenopus laevis oocytes at 30 uM pretreated with acetylcholine followed by compound treatment and re-treatment of acetylcholine by two electrode voltage-clamp assay; type: cell-based; details: Oocyte
[12] = target: T2, Neuronal acetylcholine receptor subunit alpha-7; test: Silent agonist activity at human alpha7 nAChR expressed in acetylcholine-treated xenopus laevis oocytes at 30 uM in presence of PNU-120596 by two electrode voltage-clamp assay; type: cell-based; details: Oocyte
[13] = target: T2, Neuronal acetylcholine receptor subunit alpha-7; test: Agonist activity at human alpha7 nAChR expressed in xenopus laevis oocytes assessed as activation of acetylcholine-induced response by two electrode voltage-clamp assay (reference value: 1); type: cell-based; details: Oocyte, filed as agonist
[14] = target: T2, Neuronal acetylcholine receptor subunit alpha-7; test: Desensitization of human alpha7 nAChR expressed in acetylcholine-treated xenopus laevis oocytes at 30 uM by two electrode voltage-clamp assay; type: cell-based; details: Oocyte
Mus musculus [15] = test: Anti-allodynic effect in C57BL/6J mouse model of CFA-induced chronic inflammatory pain assessed as reduction in mechanical hypersensitivity at 1 mg/kg, ip measured for 1 hr relative to control; type: functional; set-up: scale not given: the % may be the effect or the level left
Mus musculus [16] = test: Anti-allodynic effect in C57BL/6J mouse model of CFA-induced chronic inflammatory pain assessed as reduction in mechanical hypersensitivity at 0.3 mg/kg, ip measured after 1 hr; type: functional, organism-based
Mus musculus [17] = test: Anti-allodynic effect in C57BL/6J mouse model of CFA-induced chronic inflammatory pain assessed as reduction in mechanical hypersensitivity at 0.3 to 1 mg/kg, ip measured for 6 hrs; type: functional, organism-based; details: dose 0.3-1 mg/kg
Mus musculus [18] = test: Effect on von Frey responses in C57BL/6J mouse model of CFA-induced chronic inflammatory pain at 0.3 to 1 mg/kg, ip measured for 0.5 to 6 hrs; type: functional, organism-based; details: dose 0.3-1 mg/kg, time 0.5-6 hrs
Mus musculus [19] = test: Anti-inflammatory activity in C57BL/6J mouse model of CFA-induced chronic inflammatory pain assessed as reduction in paw edema at 1 mg/kg, ip measured for 0.5 to 6 hrs; type: functional, organism-based; details: time 0.5-6 hrs
[20] = target: T2, Neuronal acetylcholine receptor subunit alpha-7; test: Silent agonist activity at human alpha7 nAChR expressed in acetylcholine-treated xenopus laevis oocytes assessed as potentiated response at 30 uM in presence of PNU-120596 by two electrode voltage-clamp assay; type: cell-based; details: Oocyte, filed as agonist
[21] = target: T2, Neuronal acetylcholine receptor subunit alpha-7; test: Silent agonist activity at human alpha7 nAChR expressed in acetylcholine-treated xenopus laevis oocytes assessed as relative response at 30 uM by two electrode voltage-clamp assay; type: cell-based; details: Oocyte, filed as agonist
Mus musculus [22] = test: Anti-nociceptive effect in CFA C57BL/6J mouse model with alpha7 nAChR knockout at 1 mg/kg, ip measured after 3 days; type: functional, organism-based; details: time 3.0 day
Mus musculus [23] = test: Effect on locomotor activity in C57BL/6J mouse model of CFA-induced chronic inflammatory pain at 1 mg/kg, ip measured for 0.5 to 6 hrs; type: functional, organism-based; details: time 0.5-6 hrs
[24] = target: T2, Neuronal acetylcholine receptor subunit alpha-7; test: Desensitization of human alpha7 nAChR expressed in acetylcholine-treated xenopus laevis oocytes at 30 uM pretreated with acetylcholine followed by compound treatment and re-treatment of acetylcholine thrice by two electrode voltage-clamp assay; type: cell-based; details: Oocyte
[25] = target: T1, Neuronal acetylcholine receptor subunit alpha-9; test: Silent agonist activity at human alpha9 nAChR expressed in acetylcholine-treated xenopus laevis oocytes at 30 uM by two electrode voltage-clamp assay; type: cell-based; details: Oocyte, filed as agonist
[26] = target: T1, Neuronal acetylcholine receptor subunit alpha-9; test: Activation of human alpha9 nAChR expressed in xenopus laevis oocytes at 30 uM by two electrode voltage-clamp assay; type: cell-based; details: Oocyte
[27] = target: T1, Neuronal acetylcholine receptor subunit alpha-9; test: Antagonist activity at human alpha9 nAChR expressed in xenopus laevis oocytes assessed as inhibition of acetylcholine-induced response by two electrode voltage-clamp assay; type: cell-based, Oocyte

T1 sequence (Q9UGM1 whole entry): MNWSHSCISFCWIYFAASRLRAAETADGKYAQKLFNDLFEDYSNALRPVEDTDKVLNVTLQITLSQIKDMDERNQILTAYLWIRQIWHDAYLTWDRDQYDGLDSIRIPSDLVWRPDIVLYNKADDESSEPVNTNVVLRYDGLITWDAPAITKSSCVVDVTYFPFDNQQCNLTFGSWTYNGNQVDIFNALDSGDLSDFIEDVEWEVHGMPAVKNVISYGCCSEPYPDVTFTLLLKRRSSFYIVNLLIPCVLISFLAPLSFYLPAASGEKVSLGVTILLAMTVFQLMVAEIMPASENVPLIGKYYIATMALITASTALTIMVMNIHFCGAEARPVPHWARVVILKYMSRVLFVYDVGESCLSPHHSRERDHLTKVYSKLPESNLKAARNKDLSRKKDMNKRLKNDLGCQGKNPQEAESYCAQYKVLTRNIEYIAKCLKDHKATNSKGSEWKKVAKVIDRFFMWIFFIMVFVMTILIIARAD
T2 sequence (P36544 whole entry): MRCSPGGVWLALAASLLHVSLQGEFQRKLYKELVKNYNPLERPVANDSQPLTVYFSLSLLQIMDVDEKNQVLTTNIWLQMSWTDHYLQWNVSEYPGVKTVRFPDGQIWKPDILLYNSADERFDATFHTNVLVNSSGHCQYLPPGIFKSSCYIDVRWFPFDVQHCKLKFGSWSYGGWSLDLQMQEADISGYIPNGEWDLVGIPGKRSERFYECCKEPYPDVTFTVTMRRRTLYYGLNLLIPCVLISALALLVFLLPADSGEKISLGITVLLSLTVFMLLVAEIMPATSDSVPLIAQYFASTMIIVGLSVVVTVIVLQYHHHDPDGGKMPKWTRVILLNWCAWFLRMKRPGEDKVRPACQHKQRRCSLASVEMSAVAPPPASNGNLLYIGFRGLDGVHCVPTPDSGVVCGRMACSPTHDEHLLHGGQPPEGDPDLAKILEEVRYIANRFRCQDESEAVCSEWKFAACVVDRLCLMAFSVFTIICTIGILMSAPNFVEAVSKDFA

Structure (SMILES): C1C[S+]2CCC(CC2)N1
EC50 [10]: 41 µM
Activity [11]: inactive
Activity [12]: inactive
max activation [13]: 0.98
Activity [14]: inactive

Structure (SMILES): CC[S+]1CCN(C(=O)c2ccc(-c3cccc(C(F)(F)F)c3)o2)CC1.O=S(=O)([O-])C(F)(F)F
Activity (Mus musculus [15]): 100%
Activity (Mus musculus [16]): Active
Activity ([12]; filed as agonist): Active; Silent Agonist Activity Observed
Activity (Mus musculus [17]): inactive
Activity (Mus musculus [18]): No effect
Activity (Mus musculus [19]): Active
Activity [20]: 11.2
Activity [21]: 0.016
Activity (Mus musculus [22]): Active
Activity (Mus musculus [23]): No effect

Structure (SMILES): O=C(c1ccc(-c2cccc(C(F)(F)F)c2)o1)N1CC[S+]2CCC1CC2
IC50 [2]: 5.24 µM
Activity [7]: Active

Structure (SMILES): O=C(c1ccc(-c2cccc(C(F)(F)F)c2)o1)N1CCN2CCC1CC2
Activity [25]: Active; Silent Agonist Activity Observed
Activity [26]: inactive

Structure (SMILES): O=C(c1ccc(-c2cccc(C(F)(F)F)c2)o1)N1CCCSCC1
Activity [12]: inactive

Structure (SMILES): O=C(c1ccco1)N1CC[S+]2CCC1CC2
Activity [7]: Active

Second part, led by results:

max activation [1]: 0.18
IC50 [2]: 2.82 µM
EC50 [3]: 2.38 µM
Activity [7]: Active
Structure (SMILES): CC[S+](CC)CCNC(=O)c1ccc(-c2cccc(C(F)(F)F)c2)o1
Activity (Mus musculus [4]): inactive
Activity (Mus musculus [5]): No effect
Activity (Mus musculus [6]): Active
Activity (Mus musculus [8]): No effect
Activity (Mus musculus [9]): inactive

EC50 [10]: 2.4 µM
Activity [12]: inactive
max activation [13]: 0.26
Structure (SMILES): C[S+]1CCN(C(=O)c2ccc(-c3cccc(C(F)(F)F)c3)o2)CC1
Activity [24]: inactive
Activity ([14]; filed as agonist): Active; Silent Agonist Activity Observed

Activity [12]: inactive
Structure (SMILES): CCSCCNC(=O)c1ccc(-c2cccc(C(F)(F)F)c2)o1

Activity [12]: inactive
Structure (SMILES): CSCCCNC(=O)c1ccc(-c2cccc(C(F)(F)F)c2)o1

Activity [12]: inactive
Structure (SMILES): C[S+](C)CCNC(=O)c1ccc(-c2cccc(C(F)(F)F)c2)o1

Activity ([12]; filed as agonist): Active; Silent Agonist Activity Observed
IC50 [27]: 7.9 µM
Structure (SMILES): C[S+]1CCCN(C(=O)c2ccc(-c3cccc(C(F)(F)F)c3)o2)CC1 (stereo unspecified)

Activity ([12]; filed as agonist): Active; Silent Agonist Activity Observed
Structure (SMILES): C[S+](C)CCCNC(=O)c1ccc(-c2cccc(C(F)(F)F)c2)o1

Activity [12]: inactive
Structure (SMILES): O=C(c1ccc(-c2cccc(C(F)(F)F)c2)o1)N1CCSCC1

IC50 [2]: 26.3 µM
Activity [7]: Active
IC50 [27]: 4.03 µM
Structure (SMILES): CC[S+]1CCCN(C(=O)c2ccc(-c3cccc(C(F)(F)F)c3)o2)CC1 (stereo unspecified)

Activity [12]: inactive
Structure (SMILES): CSCCNC(=O)c1ccc(-c2cccc(C(F)(F)F)c2)o1
